# Assay results: patent publication US20250255889A1, “METHODS FOR TREATMENT SELECTION FOR CHRONIC LYMPHOCYTIC LEUKEMIA (CLL)” (The Broad Institute, Inc., priority 2022, published 2025)
# Test system: primary CLL samples (CD19+ and CD5+ cells)
# Test: High-throughput dynamic BH3 profiling (HT-DBP): drug-induced apoptotic priming (delta priming), cytochrome c release after BH3 peptide
# Assay type: cell-based, human
# Conditions: for drug-induced apoptotic priming: across CLL subtypes, 65 primary CLL samples, 20 hours drug
# Protocol: By “delta priming” is meant the difference in priming of a cell for apoptosis measured in the presence of an agent for treating chronic lymphocytic leukemia relative to priming of the cell in the presence of an inert carrier. In embodiments, the inert carrier is DMSO.
# Dynamic BH3 Profiling Dynamic BH3 profiling (DBP) is a drug screening assay that measures the relative priming of cells in a biological sample for cell death by apoptosis in the presence of a specific compound and/or a pro-apoptotic peptide. By “Dynamic BH3 profiling” is meant measuring drug-induced changes in mitochondrial apoptotic priming. Mitochondrial apoptotic priming is a measure of how close to the apoptotic threshold a cell is. A highly primed cell has relatively less anti-apoptotic binding site availability and is closer to the apoptotic threshold than a poorly primed cell, which has more anti-apoptotic availability to buffer an apoptotic assault and is further from the apoptotic threshold. BH3 peptides derived from the BH3 domain of pro-apoptotic BH3-only proteins provoke a response from viable mitochondria. Cytochrome c released from the mitochondria after a short incubation with BH3 peptide is used as a surrogate for priming. In general, the more sensitive a mitochondrion is to a BH3 peptide, the more primed it is. A drug treatment that enhances priming will cause mitochondria to undergo MOMP more easily when incubated with a fixed concentration of a promiscuously binding BH3 peptide, such as BIM BH3 peptide, compared to control-treated cells. See, for example, Potter, D. S. & Letai, A. To prime, or not to prime: that is the question. Cold Spring Harb. Symp. Quant. Biol. 81, 131-140 (2016); Montero, J. et al. Drug-induced death signaling strategy rapidly predicts cancer response to chemotherapy. Cell 160, 977-989 (2015); Daniels, V. W. et al. Metabolic perturbations sensitize triple-negative breast cancers to apoptosis induced by BH3 mimetics. Sci.
# Dynamic BH3 profiling and peptides for use therein are described, for example, in Certo, et al., “Mitochondria primed by death signals determine cellular addiction to antiapoptotic BCL-2 family members,” Cancer Cell, 9:351-365 (2006); and in Foight, et al. “Designed BH3 Peptides with High Affinity and Specificity for Targeting Mcl-1 in Cells,” ACS Chemical Biology, 9:1962-1968 (2014), the disclosures of which are incorporated herein by reference in their entireties for all purposes. The DBP assay enables one to compare the response of a patient tumor sample to a specific drug relative to other drugs and relative to an inert control (e.g., DMSO).
# To address the challenge of selecting a proper treatment for a chronic lymphocytic leukemia, experiments were undertaken to optimize high-throughput dynamic BH3 profiling (HT-DBP) for evaluation of the drug sensitivities of CLL samples (FIGS. 1, 13, 5A, 5B, 6A, 6B, and 7A-7C).
# [1] = peptide MS1 2.5 uM, feature loss_13q14.13
# [2] = peptide BAD 0.3 uM, feature EC-i
# [3] = peptide BAD 0.3 uM, feature IGLV321_R110
# [4] = peptide BAD 0.3 uM, feature NOTCH1
# [5] = peptide BAD 0.3 uM, feature RPS15
# [6] = peptide BAD 0.3 uM, feature loss_6q
# [7] = peptide BIM 0.01 uM, feature IGLV321_R110
# [8] = peptide BIM 0.01 uM, feature RPS15
# [9] = peptide BIM 0.01 uM, feature loss_6q
# [10] = peptide MS1 2.5 uM, feature IGLV321_R110
# [11] = peptide MS1 2.5 uM, feature NOTCH1
# [12] = peptide MS1 2.5 uM, feature RPS15
# [13] = peptide MS1 2.5 uM, feature loss_6q
# [14] = peptide PUMA 1 uM, feature EC-i
# [15] = peptide PUMA 1 uM, feature IGLV321_R110
# [16] = peptide PUMA 1 uM, feature NOTCH1
# [17] = peptide PUMA 1 uM, feature RPS15
# [18] = peptide PUMA 1 uM, feature loss_6q
# [19] = peptide BIM 0.01 uM, feature NOTCH1
# [20] = peptide MS1 2.5 uM, feature tri_12
# [21] = peptide PUMA 1 uM, feature loss_17q23.1
# [22] = peptide BAD 0.3 uM, feature loss_17p13.1
# [23] = peptide BAD 0.3 uM, feature loss_17q23.1
structure (smiles),measurement,setting,value
CCS(=O)(=O)N1CCN(c2ccc(Nc3ncc(C(N)=O)c(NC4CC4)n3)cc2)CC1 [Cerdulatinib],direction,Feature loss_13q14.13,Sensitive
same,direction,Feature loss_13q14.3,Sensitive
same,drug-induced apoptotic priming,,high priming
same,direction,"peptide BAD 0.3 uM, feature loss_13q14.13",Sensitive
same,direction,"peptide BAD 0.3 uM, feature loss_13q14.3",Sensitive
same,direction,"peptide BIM 0.01 uM, feature KMT2D",Sensitive
same,direction,"peptide BIM 0.01 uM, feature loss_13q14.13",Sensitive
same,direction,"peptide BIM 0.01 uM, feature loss_13q14.3",Sensitive
same,direction,[1],Sensitive
same,direction,"peptide PUMA 1 uM, feature loss_13q14.13",Sensitive
same,direction,"peptide PUMA 1 uM, feature loss_13q14.3",Sensitive
C[C@@H](Oc1cc(-c2cnn(C3CCNCC3)c2)cnc1N)c1c(Cl)ccc(F)c1Cl [Crizotinib],direction,[2],Resistant
same,direction,"peptide BAD 0.3 uM, feature EC-u1",Sensitive
same,direction,[3],Resistant
same,direction,[4],Resistant
same,direction,"peptide BAD 0.3 uM, feature RFX7",Sensitive
same,direction,[5],Resistant
same,direction,"peptide BAD 0.3 uM, feature ZMYM3",Sensitive
same,direction,[6],Resistant
same,direction,"peptide BAD 0.3 uM, feature loss_11q22.3",Sensitive
same,direction,"peptide BAD 0.3 uM, feature n-CLL",Sensitive
same,direction,"peptide BIM 0.01 uM, feature EC-i",Resistant
same,direction,[7],Resistant
same,direction,"peptide BIM 0.01 uM, feature NOTCHI",Resistant
same,direction,[8],Resistant
same,direction,"peptide BIM 0.01 uM, feature SF3B1",Sensitive
same,direction,[9],Resistant
same,direction,[10],Resistant
same,direction,[11],Resistant
same,direction,"peptide MS1 2.5 uM, feature RFX7",Resistant
same,direction,[12],Resistant
same,direction,"peptide MS1 2.5 uM, feature ZMYM3",Resistant
same,direction,[13],Resistant
same,direction,"peptide MS1 2.5 uM, feature priortrt_Post",Resistant
same,direction,[14],Resistant
same,direction,[15],Resistant
same,direction,[16],Resistant
same,direction,[17],Resistant
same,direction,[18],Resistant
"Cc1nc(Nc2ncc(C(=O)Nc3c(C)cccc3Cl)s2)cc(N2CCN(CCO)CC2)n1 [Dasatinib, dasatinib]",direction,[3],Resistant
same,direction,[4],Resistant
same,direction,[5],Resistant
same,direction,[6],Resistant
same,direction,[7],Resistant
same,direction,[19],Resistant
same,direction,[8],Resistant
same,direction,[9],Resistant
same,direction,"peptide BIM 0.01 uM, feature loss_17q23.1",Sensitive
same,direction,"peptide MS1 2.5 uM, feature EC-i",Resistant
same,direction,[10],Resistant
same,direction,[11],Resistant
same,direction,[12],Resistant
same,direction,[13],Resistant
same,direction,[20],Sensitive
same,direction,[15],Resistant
same,direction,[16],Resistant
same,direction,[17],Resistant
same,direction,[18],Resistant
same,direction,[21],Sensitive
"C[C@H](Nc1ncnc2[nH]cnc12)c1cc2cccc(Cl)c2c(=O)n1-c1ccccc1 [Duvelisib, duvelisib]",drug-induced apoptotic priming,,high priming
same,direction,[22],Sensitive
same,direction,[23],Sensitive
same,direction,"peptide BIM 0.01 uM, feature EC-m2",Sensitive
same,direction,[19],Resistant
same,direction,"peptide MS1 2.5 uM, feature loss_17p13.1",Sensitive
same,direction,"peptide MS1 2.5 uM, feature loss_17q23.1",Sensitive
same,direction,"peptide PUMA 1 uM, feature EC-m2",Sensitive
same,direction,"peptide PUMA 1 uM, feature loss_17p13.1",Sensitive
same,direction,[21],Sensitive
c1cn2cc(-c3ccc4cn[nH]c4c3)nc(Nc3ccc(N4CCOCC4)cc3)c2n1 [Entospletinib],direction,Feature tri_12,Sensitive
same,direction,[22],Sensitive
same,direction,[23],Sensitive
same,direction,"peptide BAD 0.3 uM, feature loss_19p13.11",Sensitive
same,direction,"peptide BIM 0.01 uM, feature tri_12",Sensitive
same,direction,"peptide MS1 2.5 uM, feature loss_19p13.11",Sensitive
same,direction,"peptide PUMA 1 uM, feature loss_19p13.11",Sensitive
CCn1c(-c2nonc2N)nc2c(C#CC(C)(C)O)ncc(OC[C@H]3CCCNC3)c21 [GSK690693],direction,Feature i-CLL,Sensitive
same,direction,"peptide BAD 0.3 uM, feature EC-o",Sensitive
same,direction,"peptide BAD 0.3 uM, feature POT1",Resistant
same,direction,"peptide BAD 0.3 uM, feature loss_3p13",Resistant
same,direction,"peptide BIM 0.01 uM, feature i-CLL",Sensitive
same,direction,"peptide MS1 2.5 uM, feature EC-m3",Resistant
same,direction,"peptide MS1 2.5 uM, feature EC-o",Sensitive
same,direction,"peptide MS1 2.5 uM, feature i-CLL",Sensitive
same,direction,[1],Sensitive
same,direction,"peptide PUMA 1 uM, feature BIRC3",Sensitive
same,direction,"peptide PUMA 1 uM, feature ITIH2",Sensitive
same,direction,"peptide PUMA 1 uM, feature i-CLL",Sensitive
same,direction,"peptide PUMA 1 uM, feature loss_9p21.3",Sensitive
same,direction,"peptide PUMA 1 uM, feature loss_17q11.2",Sensitive
Cc1cc(Nc2cc(CN3CCOCC3)c3nc(C)c(Cc4ccc(Cl)cc4F)n3n2)n[nH]1 [Gandotinib],drug-induced apoptotic priming by expression cluster,EC-ul (U-CLL),most sensitive
same,direction,Feature EC-i,Resistant
same,drug-induced apoptotic priming,,high priming
same,direction,[2],Resistant
same,direction,"peptide BAD 0.3 uM, feature GNB1",Sensitive
same,direction,[14],Resistant
same,direction,"peptide PUMA 1 uM, feature GNB1",Sensitive
"CC[C@H](Nc1ncnc2nc[nH]c12)c1nc2cccc(F)c2c(=O)n1-c1ccccc1 [Idelalisib, idelalisib]",drug-induced apoptotic priming,,high priming
same,direction,[20],Sensitive
same,direction,"peptide PUMA 1 uM, feature DICER1",Resistant
same,direction,"peptide PUMA 1 uM, feature EC-m4",Sensitive
same,direction,"peptide PUMA 1 uM, feature KMT2D",Sensitive
same,direction,"peptide PUMA 1 uM, feature MED1",Resistant
